Results taken from patent US6916812B2, “Alpha-aminoamide derivatives as melanocortin agonists” (Bristol-Myers Squibb Company, priority 2001, dated 2005).
pIC50: −log10 of the molar value. One block for each molecule: values may come before it.

Experiments:
cloned human MC4R = molecular target: T1, cloned human MC4R (Homo sapiens, UniProt P32245); assay: Membrane binding assay: competitive inhibition of [125I]NDP-α-MSH binding; conditions: for inhibition at 10 µM: read-out: Displacement Rate (%) (at 10 μM); for pIC50: read-out: MC4R IC50
T1 construct: made in house; host or cells: Hi5 insect cells (baculovirus infection); membrane preparation
T1 sequence (P32245 whole entry): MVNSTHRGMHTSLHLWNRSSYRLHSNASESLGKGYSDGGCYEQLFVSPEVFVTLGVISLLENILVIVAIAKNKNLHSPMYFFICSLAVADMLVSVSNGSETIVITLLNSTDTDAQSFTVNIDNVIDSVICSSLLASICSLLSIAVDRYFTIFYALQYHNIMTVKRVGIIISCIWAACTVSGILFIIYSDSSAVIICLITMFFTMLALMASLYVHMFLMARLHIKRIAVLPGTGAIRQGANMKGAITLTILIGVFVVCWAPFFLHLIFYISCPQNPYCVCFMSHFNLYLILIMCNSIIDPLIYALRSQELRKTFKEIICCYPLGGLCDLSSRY

Rodents = conditions: injected intracerebroventricularly (ICV); NPY, ob/ob, agouti, fasted feeding models; cited from earlier work
[1] = system: male volunteers / patients with psychogenic erectile dysfunction; conditions: cited from earlier work
[2] = intramuscular, 0.005-0.03 mg/kg, three normal male volunteers
[3] = subcutaneous, 0.025 mg/kg and 0.1 mg/kg, 10 patients with psychogenic erectile dysfunction

- pIC50 (cloned human MC4R): < 5.52
Molecule: N[C@@H](Cc1ccc(Oc2ccccc2)cc1)C(=O)N1CCN(Cc2cccc(Cl)c2Cl)CC1 [Example 344]

- pIC50 (cloned human MC4R): > 5.82
Molecule: Cc1ccc(Oc2ccc(C[C@H](N)C(=O)N3CCN(Cc4cccc(Cl)c4Cl)CC3)cc2)cc1 [Example 345]

- pIC50 (cloned human MC4R): 5.52 to 5.82
Molecule: N[C@@H](Cc1ccc(Oc2ccc(Cl)c(Cl)c2)cc1)C(=O)N1CCN(Cc2cccc(Cl)c2Cl)CC1 [Example 346]

- pIC50 (cloned human MC4R): 5.52 to 5.82
Molecule: Cc1cccc(Oc2ccc(C[C@H](N)C(=O)N3CCN(Cc4cccc(Cl)c4Cl)CC3)cc2)c1 [Example 347]

More lines, now with the values behind:

Molecule: CC(=O)c1ccc(-c2ccc(C[C@H](N)C(=O)N3CCN(Cc4cccc(Cl)c4Cl)CC3)cc2)s1 [Example 342]
- inhibition at 10 µM (cloned human MC4R): 71 to 90%
- pIC50 (cloned human MC4R): 5.52 to 5.82

Molecule: COc1ccc(-c2ccc(C[C@H](N)C(=O)N3CCN(Cc4cccc(Cl)c4Cl)CC3)cc2)cn1 [Example 343]
- inhibition at 10 µM (cloned human MC4R): 35 to 70%
- pIC50 (cloned human MC4R): < 5.52

Molecule: Cc1ccccc1Oc1ccc(C[C@H](N)C(=O)N2CCN(Cc3cccc(Cl)c3Cl)CC2)cc1 [Example 348]
- pIC50 (cloned human MC4R): 5.52 to 5.82

Molecule: MT-II
- food intake (Rodents): reduced food intake
- penile erections [1, 2]: intermittent non-painful penile erections
- period of erections after dosing [1, 2]: 1 to 5 h
- onset of transient erections [1, 3]: 50 to 180 min
- responders with transient erections [1, 3]: 8

Molecule: SHU-9119
- food intake (Rodents): reverses this effect and can induce hyperphagia
